From patent US20090088373A1, “USE OF COMPOSITIONS TO ENHANCE INNATE IMMUNE RESPONSE” (priority 2007, published 2009)

Assays:
[1] = system: Human Beta Defensin (HBD) 2; assay: HBD2 expression in normal human keratinocytes (NHEK); format: cell-based; parameters: unit not given here; conditions: Example 2; TLR ligand alone, without Pimecrolimus
Method: (§1) To assess the effect of pimecrolimus on the innate immune response of the epidermis, cultures of normal human keratinocytes (NHEK) are stimulated with combinations of a concentration of 10 nM pimecrolimus, 1 μg/ml TLR 2/CD14 ligand—peptidoglycan (PGN), 10 μg/ml lipoteichoic acid (LTA), 2 0.1 μg/ml TLR 2/6 ligand—Malp-, and/or 0.1 μg/ml TLR 4/CD14 ligand—lipopolysaccharide (LPS). Expression of cathelicidin mRNA (Table 3) and protein as well as Human Beta Defensin (HBD) 2 (Table 4) and HBD3 (Table 5) expression in normal human keratinocytes is measured.

[2] = system: cathelicidin; assay: Cathelicidin mRNA expression in normal human keratinocytes (NHEK); format: cell-based; parameters: Cathelicidin mRNA expression (Mean) / Cathelicidin mRNA expression (means): unit not given here; conditions: for Cathelicidin mRNA expression (means): 1 uM tacrolimus, 1 ug/ml CsA, 25ng/ml rapamycin; for Cathelicidin mRNA expression (Means of N = 3): Example 6, 10 nM Pimecrolimus, 1 nM 1,25D3
Method: as §1
(§2) To assess the effect of pimecrolimus on the innate immune response of the epidermis, cultures of normal human keratinocytes (NHEK) are stimulated with a concentration of 10 nM pimecrolimus,1 nM 1.25 D3, 0.1 μg/ml TLR2/6 ligand Malp-2 or their combination. Expression of cathelicidin, CD14 and TLR2 mRNA normal human keratinocytes is measured and evaluated accordingly to the procedures as detailed in Example 2 above.
To assess the effect of pimecrolimus on the innate immune response of the epidermis, cultures of normal human keratinocytes (NHEK) are stimulated with a concentration of 10 nM pimecrolimus, 1 uM tacrolimus, 1 ug/ml CsA, 25ng/ml rapamycin, or a combination of pimecrolimus and rapamycin, each of these with or without 0.1 μg/ml TLR2/6 ligand Malp-2. Cathelicidin mRNA expression is evaluated.
(§3) To assess the effect of time dependent effects of pimecrolimus on the innate immune response of the epidermis, cultures of normal human keratinocytes (NHEK) are stimulated with 10 nM Pimecrolimus and low dose calciferol (1,25D3) 1 nM for different time points. mRNA expression of cathelicidin, CD14 and TLR2 is analyzed by qPCR.
To assess the effect of varying levels of pimecrolimus on the innate immune response of the epidermis, cultures of normal human keratinocytes (NHEK) are stimulated with 0 nM, 5 nM, 10 nM, 20 nM, 30 nM, […], […] and 60 nM concentrations of pimecrolimus. Expression of cathelicidin mRNA expression is measured and evaluated accordingly to the procedures as detailed in Example 2 above.
(§4) To assess the effect of calciferol on varying levels of pimecrolimus on the innate immune response of the epidermis, cultures of normal human keratinocytes (NHEK) are stimulated with 0.01 nM, 0.1 nM, 1 nM and 10 nM concentrations of pimecrolimus with or without 1 nM concentrations of calciferol for 24 hours. Expression of cathelicidin mRNA and gene expression of TLR2 is measured and evaluated accordingly to the procedures as detailed in Example 2 above.

[3] = system: HBD3; assay: HBD3 expression in normal human keratinocytes (NHEK); format: cell-based; parameters: unit not given here; conditions: Example 2; TLR ligand alone, without Pimecrolimus
Method: as §1

[4] = system: TLR1; assay: TLR1 gene expression by qPCR in NHEK; format: cell-based, human; conditions: Example 3; 10 nM pimecrolimus, 1 nM 1.25D3
Method: (§5) To assess the effect of pimecrolimus on the innate immune response of the epidermis, cultures of normal human keratinocytes (NHEK) are stimulated with a combination of a concentration of 10 nM pimecrolimus and of 1 nM 1.25D3. Gene expression of TLR1, TLR2, TLR4, TLR6 and CD14 are evaluated by qPCR. For CD14 protein expression, a Western Blot is performed and bands are quantified by densitometry using lmagej. Vehicle treated keratinocytes serve as controls. Cathelicidin protein expression is evaluated by immunofluorescence staining.

[5] = system: CD14; assay: CD14 gene expression by qPCR in NHEK; format: cell-based, human; conditions: for CD14 mRNA expression (Mean): 10 nM pimecrolimus; for CD14 mRNA expression (Means of N = 3): Example 6, 10 nM Pimecrolimus, 1 nM 1,25D3
Method: as §5, §2, §3

[6] = system: Staphylococcus aureus ΔmprF; assay: Growth of S. aureus ΔmprF (OD600) mixed with lysates of stimulated normal human keratinocytes; format: cell-based; conditions: S. aureus + lysates of NHEK stimulated with 10 nM pimecrolimus, 1 nM 1.25D3 or combination, 37° C.
Method: To assess the effect of pimecrolimus on the innate immune response of the epidermis against bacteria, cultures of normal human keratinocytes (NHEK) are stimulated with a concentration of 10 nM pimecrolimus, 1 nM 1.25D3 (active 1.25 D-hydroxy calciferol) or their combination. Cells are lysed via sonication 20 minutes in an ice bath, after which cell lysates were mixed with Staphylococcus aureus ΔmprF cultures and incubated at 37° C. Bacterial growth over time is monitored by OD600 (Table 1). To determine if Pimecrolimus alone was able to kill Staphylococcus aureus ΔmprF, Pimecrolimus in a concentration of 10 nM is co-incubated with Staphylococcus aureus ΔmprF cultures and incubated at 37° C. (Table 2). Bacterial growth is monitored by OD600 (*: p<0.05; **: p<0.01; Student's t-test).

[7] = system: TLR2; assay: TLR2 gene expression by qPCR in NHEK; format: cell-based, human; conditions: for TLR2 mRNA expression (Mean): 10 nM pimecrolimus; for TLR2 mRNA expression (Means of N = 3): Example 6, 10 nM Pimecrolimus, 1 nM 1,25D3
Method: as §5, §2, §3, §4

[8] = system: TLR6; assay: TLR6 gene expression by qPCR in NHEK; format: cell-based, human; conditions: Example 3; 10 nM pimecrolimus, 1 nM 1.25D3
Method: as §5

[9] = Example 2, TLR ligand alone, without Pimecrolimus (1 μg/ml PGN, 10 μg/ml LTA, 0.1 μg/ml Malp-2, 0.1 μg/ml LPS)
[10] = Example 5, Experiment 1, with 0.1 μg/ml Malp-2, 10 nM pimecrolimus
[11] = Example 5, Experiment 2, with 0.1 μg/ml Malp-2, 10 nM pimecrolimus
[12] = Example 4, 1 nM 1.25 D3, 0.1 μg/ml Malp-2 or combination
[13] = Example 5, Experiment 1, without Malp-2, 10 nM pimecrolimus
[14] = Example 5, Experiment 2, without Malp-2, 10 nM pimecrolimus

Q: Malp-2 was tested. Which “HBD2 expression (Mean)” value [1] did it give?
A: 119.16

Q: What about the “Cathelicidin mRNA expression (Mean)” value [2, 9] of the same molecule?
A: 2.29

Q: And the “Cathelicidin mRNA expression (means)” value [2, 10]?
A: 1.53

Q: And the “Cathelicidin mRNA expression (means)” value [2, 11]?
A: 3.19

Q: What about the “HBD3 expression (Mean)” value [3] of the same molecule?
A: 3.51

Q: With lipoteichoic acid [LTA] as the molecule, how does the “HBD2 expression (Mean)” value [1] read?
A: 4.43

Q: What about the “Cathelicidin mRNA expression (Mean)” value [2, 9] of the same molecule?
A: 3.82

Q: And the “HBD3 expression (Mean)” value [3]?
A: 2.46

Q: What does the source list for `C=C1/C(=C\C=C2/CCC[C@]3(C)[C@@H]([C@H](C)CCCC(C)(C)O)CC[C@@H]23)C[C@@H](O)C[C@@H]1O` [1.25D3, 1.25 D-hydroxy calciferol]?
A: TLR1 mRNA expression (Mean) [4]: 1.93; CD14 mRNA expression (Mean) ([5]; Example 3, 1 nM 1.25D3): 3.01; CD14 mRNA expression (Mean) [5, 12]: 3.01; CD14 mRNA expression (Means of N = 3) ([5]; 0 h): 0.71; CD14 mRNA expression (Means of N = 3) ([5]; 8 h): 38.35; CD14 mRNA expression (Means of N = 3) ([5]; 24 h): 12.26; CD14 mRNA expression (Means of N = 3) ([5]; 48 h): 0.93; Bacterial growth OD600 (Mean) ([6]; 0 h): 0.2203; Bacterial growth OD600 (Mean) ([6]; 2 h): 0.2677; Bacterial growth OD600 (Mean) ([6]; 4 h): 0.301; Bacterial growth OD600 (Mean) ([6]; 5 h): 0.3963; Bacterial growth OD600 (Mean) ([6]; 6 h): 0.513; Bacterial growth OD600 (Mean) ([6]; 8 h): 0.6203; TLR2 mRNA expression (Mean) ([7]; Example 3, 1 nM 1.25D3): 0.66; TLR2 mRNA expression (Mean) [7, 12]: 0.10; TLR2 mRNA expression (Means of N = 3) ([7]; 0 h): 1.00; TLR2 mRNA expression (Means of N = 3) ([7]; 8 h): 1.32; TLR2 mRNA expression (Means of N = 3) ([7]; 24 h): 1.51; TLR2 mRNA expression (Means of N = 3) ([7]; 48 h): 1.55; Cathelicidin mRNA expression (Mean) ([2]; Example 4, 10 nM pimecrolimus, 1 nM 1.25 D3, 0.1 μg/ml Malp-2 or combination): 2.76; Cathelicidin mRNA expression (Means of N = 3) ([2]; 0 h): 1.00; Cathelicidin mRNA expression (Means of N = 3) ([2]; 8 h): 35.04; Cathelicidin mRNA expression (Means of N = 3) ([2]; 24 h): 134.03; Cathelicidin mRNA expression (Means of N = 3) ([2]; 48 h): 92.37; TLR6 mRNA expression (Mean) [8]: 1.01

Q: Which results are given for peptidoglycan [PGN]?
A: HBD2 expression (Mean) [1]: 3.26; Cathelicidin mRNA expression (Mean) [2, 9]: 1.18; HBD3 expression (Mean) [3]: 0.61

Q: With `C=CC[C@@H]1/C=C(\C)C[C@H](C)C[C@H](OC)[C@H]2O[C@@](O)(C(=O)C(=O)N3CCCC[C@H]3C(=O)O[C@H](/C(C)=C/[C@@H]3CC[C@@H](O)[C@H](OC)C3)[C@H](C)[C@@H](O)CC1=O)[C@H](C)C[C@@H]2OC` [Tacrolimus, tacrolimus] as the molecule, how does the “Cathelicidin mRNA expression (means)” value [2, 10] read?
A: 5.47

Q: What about the “Cathelicidin mRNA expression (means)” value [2, 13] of the same molecule?
A: 0.67

Q: What about the “Cathelicidin mRNA expression (means)” value [2, 11] of the same molecule?
A: 0.77

Q: What about the “Cathelicidin mRNA expression (means)” value [2, 14] of the same molecule?
A: 3.34

Q: lipopolysaccharide [LPS] was tested. Which “HBD2 expression (Mean)” value [1] did it give?
A: 5.68

Q: What about the “Cathelicidin mRNA expression (Mean)” value [2, 9] of the same molecule?
A: 0.65

Q: What about the “HBD3 expression (Mean)” value [3] of the same molecule?
A: 1.39

Q: For `CO[C@H]1C[C@@H]2CC[C@@H](C)[C@@](O)(O2)C(=O)C(=O)N2CCCC[C@H]2C(=O)O[C@H]([C@H](C)C[C@@H]2CC[C@@H](O)[C@H](OC)C2)CC(=O)[C@H](C)/C=C(\C)[C@@H](O)[C@@H](OC)C(=O)[C@H](C)C[C@H](C)/C=C/C=C/C=C/1C` [Rapamycin, rapamycin], which “Cathelicidin mRNA expression (means)” value [2, 10] is on record?
A: 4.03

Q: What about the “Cathelicidin mRNA expression (means)” value [2, 13] of the same molecule?
A: 5.13

Q: What about the “Cathelicidin mRNA expression (means)” value [2, 11] of the same molecule?
A: 12.38

Q: And the “Cathelicidin mRNA expression (means)” value [2, 14]?
A: 5.85
